Patent US8809303B2, “Methods of regulating actin cytoskeletal rearrangement and intercellular gap formation” (The University of North Carolina at Chapel Hill, priority 2008, dated 2014)

What was measured:
Type in all cases: cell-based
[1] = test system: human pulmonary microvascular endothelial cells (HMVECs); assay: Determination of viability for cell culture experiments (LDH activity, CytoTox96 assay) during simulated IRI; settings: controls vs treated groups, all time points of simulated IRI
Method: In separate experiments performed in triplicate, HMVECs grown to confluence on P35 dishes underwent simulated IRI. At the same time points, cells and cell culture media or Ringer's lactate were assessed for lactate dehydrogenase (LDH) activity using the CytoTox96 Non-Radioactive Cytotoxicity Assay (Promega, Madison, Wis., United States of America) following the manufacturer's instructions. Control samples were also taken at time zero and 24 hours to assess cell viability apart from the experimental model. Culture medium and Ringer's lactate were used as background controls to normalize the absorbance value from the other samples. Cytotoxicity was calculated as media LDH activity divided by total LDH activity (cell pellet plus media). Viability was the inverse and expressed as percent viability at each time point.

[2] = test system: human pulmonary microvascular endothelial cells (HMVECs); assay: Cell culture model of warm lung IRI: simulated warm ischemia and reperfusion, phalloidin staining and image analysis; settings: 1 μg/mL CRX-526 vs vehicle
Method: An in vitro normothermic (37° C.) model of IRI employing nutrient depletion in 100% oxygen to model ischemia was developed, with reperfusion modeled by supplying fresh medium to culture dishes in sealed PLEXIGLAS® containers. Human pulmonary microvascular endothelial cells (HMVECs) (Cambrex Bio Science, Walkersville, Md., United States of America) maintained in CLONETICS® EGM-2MV BULLETKITS® (Cambrex Bio Science, Walkersville, Md., United States of America), at 37° C. in a humidified incubator in 5% CO2 were seeded at 2000 cells/cm^2 on collagen-coated 30 mm diameter glass bottom dish coverslips (Mattek Corp., Ashland, Mass., United States of America) and grown until 100% confluent. Sealed PLEXIGLAS® containers housing culture dishes at 37° C. were ventilated with 95% O2/5% CO2. To model warm ischemia (WI), cell medium was suddenly replaced with 2 mL nutrient-depleted, pyrogen-free clinical grade Ringer's lactate. Dishes were pre-treated with 1 μg/mL CRX-526 (GlaxoSmithKline, Duluth, Minn., United States of America) or vehicle (2% glycerin), one hour before WI. CRX-526 or vehicle was added whenever medium was changed. After 1 hour of simulated WI, Ringer's lactate was replaced with EGM2-MV pyrogen-free medium to simulate reperfusion, ventilating the chamber with 5% CO2 in room air. Dishes were removed in triplicate during WI and reperfusion, and immediately fixed in 4% paraformaldehyde for phalloidin staining. Cells with inhibitor or vehicle maintained in EGM2-MV medium at 37° C. in humidified 5% CO2 incubator served as controls. Culture medium was changed at the same time that medium was changed in experimental dishes. Probes inserted through sealed ports continuously recorded temperature, and pH in a representative dish in the PLEXIGLAS® box using voltmeters with data output recorded by PicoRecorded software (Pico Technology, St. Neots, United Kingdom).
HMVECs were fixed in 4% paraformaldehyde for 10 minutes at room temperature and washed 3 times with PBS. Cells were incubated for 1 hour with a 1/100 dilution of ALEXAFLOR® 568 phalloidin (Invitrogen, Carlsbad, Calif., United States of America) in PBS with 1% BSA and 0.05% Tween-20. Coverslips stained for F-actin were immediately examined with a Leica DMIRB Inverted Fluorescence/DIC microscope (Leica Microsystems, Inc., Bannockburn, Ill., United States of America) at 20× and 40× magnification to evaluate changes in cell shape and F-actin cytoskeleton. For each dish, three pictures were taken of contiguous fields near the center of the dish at 40× with a Kodak (Rochester, N.Y., United States of America) digital camera at the same exposure time. A masked observer assessed actin stress fiber pattern of each cell as normal or abnormal. Quantitative analysis of gap area was performed using METAMORPH® software (MDS Analytical Technologies, Inc., Sunnyvale, Calif., United States of America).
As described in Example 1, HMVECs grown to confluence on P30 dishes with integral cover slips were incubated with 1 μg/mL CRX-526 or vehicle, ventilated with 95% O2/5% CO2. Media was replaced with warm (37° C.)
Ringer's lactate and ventilated with 100% O2 to simulate warm ischemia. One hour later, Ringer's lactate was replaced with warm cell culture media, and chambers were ventilated with 95% room air/5% CO2 to simulate reperfusion. […]

[3] = test system: human pulmonary microvascular endothelial cells (HMVECs); assay: Simulated cold IRI: cold ischemia in 4° C. PERFADEX, gaps in monolayer; settings: CRX-526 pre-incubation; 4 hours of cold ischemia in 4° C. PERFADEX; FIG. 2A, 2B
Method: FIG. 2A is a series of photographs of (from left to right) human pulmonary microvascular endothelial cells (HMVECs) in warm (37° C.) cell culture media (Control), of HMVECs after four hours of cold ischemia (CI) in 4° C. cell culture media (Media 4 hr CI), of HMVECs after four hours of cold ischemia in 4° C. PERFADEX™ (Vitrolife, Kungsbacka, Sweden) pulmonary preservation solution (Vehicle 4 hr CI), and of HMVECs that had been pre-incubated with CRX-526 and undergone four hours of cold ischemia in 4° C. PERFADEX™ (Vitrolife, Kungsbacka, Sweden) with CRX-526 (CRX-526 4 hr CI). The photographs are representative of 9 images taken for each set of conditions.
FIG. 2B is a graph of the % area of gaps in the monolayer of human pulmonary microvascular endothelial cells (HMVECs) in cell culture media (Media), vehicle (i.e., PERFADEX™ (Vitrolife, Kungsbacka, Sweden)) or in vehicle after a 1 hour pre-treatment with CRX-526 and following either four hours of cold ischemia (4 hr CI), 1 hour of warm ischemia (WI), or following 1 hour of warm ischemia and 15 min, 1 hr, or 4 hr of reperfusion (15 min rep, 1 hr rep, and 4 hr rep, respectively). Data for the HMVECs in cell culture media without vehicle is shown in the open bars. […] The % gap area was quantified by MetaMorph® software (MDS Analytical Technologies, Inc., Sunnyvale, Calif., United States of America). *=p<0.01. […]

Compound: CCCCCCCCCCC[C@H](CC(=O)N[C@H]1[C@H](OC[C@H](NC(=O)C[C@@H](CCCCCCCCCCC)OC(=O)CCCCC)C(=O)O)O[C@H](CO)[C@@H](OP(=O)(O)O)[C@@H]1OC(=O)C[C@@H](CCCCCCCCCCC)OC(=O)CCCCC)OC(=O)CCCCC [CRX-526]
- cell viability, quantified by LDH assay [1]: equivalent
- peripheral orientation of actin ([2]; after 15 minutes simulated reperfusion, FIG. 1C): significantly reduced
- recovery of monolayer confluence ([2]; after simulated reperfusion, FIG. 1B): regained confluence more quickly
- area of monolayer gaps ([2]; during simulated warm ischemia, FIG. 1B): significantly reduced
- peripheral orientation of actin ([2]; following 60 minutes of WI, FIG. 1C): significantly reduced
- percentage of cells with altered actin cytoskeleton ([2]; monolayers in simulated warm IRI, FIG. 1C): decreased
- gaps in monolayer [3]: much less obvious
